This assay has as its system leukotriene D4 induced bronchoconstriction. In words: inhibition of leukotriene D4 induced bronchoconstriction in anaesthetized guinea pigs (modified Konzett-Rossler). Type of assay: in vivo, guinea pig. More on the design: % Inhibition After 30 Min.: concentration or dose not given beside the values. The following applies: for ED50: Cavia porcellus, 10 min, directly into the duodenum, dose producing 50% inhibition when given 10 minutes before LTD4, read-out: ED50 (median effective dose), inhibition of LTD4 induced bronchoconstriction; for % Inhibition After 30 Min.: inhibition of LTD4 induced bronchoconstriction, intraduodenal, 30 min after antagonist administration. As to the method:
The antagonist activity of the compounds of the present invention was determined by measuring their ability to inhibit leukotriene D4 induced bronchoconstriction in anaesthetized guinea pigs (modified Konzett-Rossler). When administrated directly into the duodenum (oral activity) they are active at 2.5-5 mg/kg. Oral activity is defined as the dose producing 50% inhibition when given 10 minutes before LTD4. Percent inhibition was determined at 10 minutes and also at 30 and 50 minutes after antagonist administration. The time interval between LTD4 administration was kept constant at 20 minutes in all experiments.
Table I is a comparison between three known leukotriene antagonists (entries 1, 2 and 3, see: G.B. Pat. No. 2,058,785, supra) and several compounds of the present invention (4-9).

This is an account of results in US4820867A, “Phenoxypropoxy halophenylacetic acids as leukotriene antagonists” (Merck Frosst Canada, Inc., priority 1986, dated 1989).

With `CCCc1c(OCCCOc2ccc(C(=O)O)cc2)ccc(C(C)=O)c1O` [Entry 1, reference compound], the 50% effective dose (ED50) is 10 mg/kg and the “% Inhibition After 30 Min.” value is 59%.
The corresponding values for `CCCc1c(OCCCOc2cccc(CCC(=O)O)c2)ccc(C(C)=O)c1O` [Entry 2, reference compound] are 10 mg/kg and 32%.
As for `CCCc1c(OCCCOc2ccc(C=CC(=O)O)cc2)ccc(C(C)=O)c1O` [Entry 3, reference compound], the ED50 came out at 20 mg/kg and the “% Inhibition After 30 Min.” value was 56%.
With `CCCc1c(OCCCOc2ccc(CC(=O)O)cc2F)ccc(C(C)=O)c1O` [Entry 4, 4-(3-(4-Acetyl-3-hydroxy-2-propylphenoxy)-propoxy)-3-fluorobenzene acetic acid], the median effective dose (ED50) is 10 mg/kg and the “% Inhibition After 30 Min.” value worked out at 100%.
Take `CCCc1c(OCC(O)COc2ccc(CC(=O)O)cc2F)ccc(C(C)=O)c1O` (stereo not drawn) [Entry 5, 4-(3-(4-Acetyl-3-hydroxy-2-propylphenoxy)-2-hydroxypropoxy)-3-fluorobenzeneacetic acid]: the ED50 is 2.5 mg/kg and the “% Inhibition After 30 Min.” value is recorded as 50%.
Regarding `CCCc1c(OCC(O)COc2ccc(CC(=O)O)cc2Br)ccc(C(C)=O)c1O` (stereo not drawn) [Entry 6, 4-(3-(4-Acetyl-3-hydroxy-2-propylphenoxy)-2-hydroxypropoxy)-3-bromobenzene acetic acid], the median effective dose (ED50) is 2.5 mg/kg and the “% Inhibition After 30 Min.” value was found to be 35%.
Taken in the same sequence, the figures for `CCCc1c(OCC(O)COc2ccc(CC(=O)O)cc2Cl)ccc(C(C)=O)c1O` (stereo not drawn) [Entry 7, 4-(3-(4-Acetyl-3-hydroxy-2-propylphenoxy)-2-hydroxypropoxy)-3-chlorobenzeneacetic acid] were 10 mg/kg and 63%.
On to `CCCc1c(OCCCOc2ccc(CC(=O)O)cc2Cl)ccc(C(C)=O)c1O` [Entry 8, 4-(3-(4-acetyl-3-hydroxy-2-propylphenoxy)propoxy)-3-chlorobenzene acetic], for which the ED50 came to 5 mg/kg and the “% Inhibition After 30 Min.” value is recorded as 60%.
For `CCCc1c(OCCCOc2ccc(CC(=O)O)cc2Br)ccc(C(C)=O)c1O` [Entry 9, 4-(3-(4-Acetyl-3-hydroxy-2-propylphenoxy)-propoxy)-3-bromobenzene acetic acid], the median effective dose (ED50) stood at 10 mg/kg and the “% Inhibition After 30 Min.” value came out at 87%.

Usually ED50 stands for the dose at which the effect has come halfway, by size or by number of responders.
